In article PMC3830699 (2013) one finds binding data, which are given here for one compound.

The test system of the experiment is 144 ydaO (RNA, riboswitch) GGGAAAACAAAUCGCUUAAUCUGAAAUCAGAGCGGGGGACCCAAUAGAACGGCUUUUUGCCGUUGGGGUGAAUCCUUUUUAGGUAGGGCUAACUCUCAUAUGCCCGAAUCCGUCAGCUAACCUCGUAAGCGUUCGUGAGAGGAGAU
The experiment is described as follows: in-line probing. As to conditions: low millimolar; tested to 3.16 mM; taken as the shorter construct of b32.

With `Nc1ncnc2c1ncn2[C@@H]1O[C@H](COP(=O)(O)OP(=O)(O)OP(=O)(O)O)[C@@H](O)[C@H]1O`, the binding result is “weak”.
